{"source": "patent US9682994B2", "about": "“Inhibitors of retroviral replication” (The Scripps Research Institute, priority 2011, dated 2017)", "key": {"HIV": {"test_system": "HIV", "assay": "Viral RNA release from CD4+ T cells of aviremic (HAART) subjects, ultrasensitive RT-PCR", "type": "cell-based, human", "experimental": "All patients provided written informed consent, according to the guidelines of the ethics committee of the Oregon Health and Science University. […] Viral production was measured in the supernatant by a sensitive in-house ELISA specific for the viral capsid protein, p24. […] Viral production was measured by quantification of viral particle-associated RNA by ultra-sensitive two-step quantitative real-time reverse transcription-PCR (RT-qPCR). Briefly, viral particles in the cell culture supernatant were pelleted by centrifugation (60 min, 25000 g at 4° C.). To generate the standard curve, a sample of LAI-HIV with known titer was pelleted in the same run. […]\nTotal viral RNA was reverse-transcribed into cDNA with gag gene-specific primers (25 pmol each), LM667 and GagR according to manufacturer's instructions (RT-PCR One Step kit—Invitrogen). Pre-amplified products were diluted in DNase-RNase free water, then subjected to quantitative real-time PCR on Rotor-Gene Q (Qiagen) in a reaction 25 pmol of the sense primer Lambda T, 25 pmol of the antisense primer AA55M, and 4 pmol of each hybridization probes (TIB MolBiol).\nTotal viral RNA (17 μL) was first treated with 1 unit DNase I (Invitrogen) for 10 min at 25° C. followed by DNase I inactivation with 1 μL 25 mM EDTA for 10 min at 65° C. Total viral RNA was then reverse-transcribed into cDNA for quantitative PCR analysis. […]"}, "HIV-1 promoter": {"test_system": "HIV-1 promoter", "assay": "Elongation from HIV-1 promoter by qRT-PCR in chronically infected HeLa cells", "type": "cell-based", "conditions": "dose-dependent", "text": "FIG. 3B: HIV-1 elongation from HIV-1 promoter measured by qPCR. […] All messages were normalized relative to GAPDH mRNA. The 100% value was arbitrarily assigned to the amounts of viral mRNA generated in the absence of compound, measured at 100 bp from start site. Right panel: Plotting of data obtained in left panel, setting each data point obtained with the 100 bp primer set at 100% and comparing to results obtained with 5.3 kb primer set.\nFor these studies, the amounts of viral RNA present at different distances from the promoter were measured using sets of oligonucleotide primer pairs specific to quantify transcripts made up to 100 bp, 5.3 kb or 8.5 kb from the transcription start site (FIG. 3A). It was observed that even in the absence of drug, elongation from the HIV-1 viral promoter is not very efficient. In the presence of DMSO alone only 30% of 5.3 kb long transcripts and 6% of 8.5 kb long transcripts were produced (FIG. 3B—left panel)."}, "[1]": {"test_system": "Tat transactivation of the HIV-1 LTR", "assay": "Tat transactivation assay, HeLa-CD4-LTR-Luc cells", "type": "cell-based", "experimental": "Chloroquine 100 μM was added to increase Tat uptake was added to all points except untreated wells. Luciferase activity was measured 24 h later using the Luciferase Assay System (Promega). Luciferase activity per protein concentration of each sample is shown as relative light units (RLU). HI: Heat Inactivated.\nFIG. 2B: HeLa-LTR-Luc cells were transfected with 2 μg of a construct expressing Tat-flag driven by the thymidine kinase (TK) promoter. […] Forty hours later RLU determined as in FIG. 2A.\nLuciferase activity measured and results adjusted per protein concentration of each sample, relative light units (RLU).\nPL11 cells were plated at 1×10^5 cells per well in a 6 well plate. The following day recombinant Tat protein (AIDS Research and Reference Reagent Program, Cat No. 11882) at 5 μg/ml and/or Cortistatin A at increasing concentrations were added to the cells, in culture media without serum and in the presence of 100 μM of chloroquine (increases Tat uptake). Five hours later, serum was added at 5% to the culture media. Forty hours later cells were lysed with 1× Lysis Buffer and luciferase activity was measured as before. Protein concentration was determined by Bradford assay. Results corresponding to the adjustment of the luciferase activity per protein concentration of each sample are shown as RLU. […]"}}, "data": [{"smiles": "CN(C)[C@H]1C[C@@]23CC[C@@]4(O2)C(=CC[C@]2(C)C(c5ccc6ccncc6c5)=CC[C@H]24)C=C3[C@@H](O)[C@@H]1O", "note": "[dCA, didehydro-Cortistatin A]", "values": [{"measurement": "viability of the cells", "setting": "HIV; at the concentrations used", "value": "did not affect the viability"}, {"measurement": "reduction of viral production", "setting": "HIV; day 6, in the presence of ARVs, no IL-2", "value": 99.7, "unit": "%"}, {"measurement": "production of longer viral RNA species (elongation)", "setting": "HIV-1 promoter", "value": "further decreased the production of longer viral RNA species"}, {"measurement": "basal transcription from the LTR promoter", "setting": "[1]; absence of Tat, or PMA activation", "value": "did not alter basal transcription"}, {"measurement": "Tat-mediated transcriptional activation of LTR-Luc", "setting": "[1]; recombinant Tat protein added", "value": "Transcriptional repression"}]}]}
